Test results as given in patent publication US20250152585A1, “PHARMACEUTICAL COMPOUND” (Duke Street Bio Limited, priority 2022, published 2025).

What was measured:
[1] = target: T1, N-terminally FLAG-tagged PARP2 (amino acids 1-583) (Homo sapiens, UniProt Q9UGN5); assay: PARP2 probe displacement HTRF assay; type: binding; details: binned Kd, PARP2 probe displacement HTRF
T1 construct: N-terminally FLAG-tagged PARP2 (amino acids 1-583)
Experimental: Data analysis was performed identical as for PARP1.

[2] = target: T2, full length N-terminally FLAG-tagged PARP1 (Homo sapiens, UniProt P09874); assay: PARP1 probe displacement HTRF assay; details: for Selectivity: PARP1 over PARP2, ratio Kd (PARP2)/Kd (PARP1), probe displacement HTRF; for Kd: read-out: PARP1 HTRF, binned Kd, PARP1 probe displacement HTRF
[3] = target: T2, full length N-terminally FLAG-tagged PARP1; assay: PARP1 biochemical DELFIA assay (auto-PARylation); design: recombinant full length human N-terminally FLAG-tagged PARP1; details: binned IC50, PARP1 biochemical DELFIA assay

T1 sequence (Q9UGN5 whole entry, the tested form may be a part): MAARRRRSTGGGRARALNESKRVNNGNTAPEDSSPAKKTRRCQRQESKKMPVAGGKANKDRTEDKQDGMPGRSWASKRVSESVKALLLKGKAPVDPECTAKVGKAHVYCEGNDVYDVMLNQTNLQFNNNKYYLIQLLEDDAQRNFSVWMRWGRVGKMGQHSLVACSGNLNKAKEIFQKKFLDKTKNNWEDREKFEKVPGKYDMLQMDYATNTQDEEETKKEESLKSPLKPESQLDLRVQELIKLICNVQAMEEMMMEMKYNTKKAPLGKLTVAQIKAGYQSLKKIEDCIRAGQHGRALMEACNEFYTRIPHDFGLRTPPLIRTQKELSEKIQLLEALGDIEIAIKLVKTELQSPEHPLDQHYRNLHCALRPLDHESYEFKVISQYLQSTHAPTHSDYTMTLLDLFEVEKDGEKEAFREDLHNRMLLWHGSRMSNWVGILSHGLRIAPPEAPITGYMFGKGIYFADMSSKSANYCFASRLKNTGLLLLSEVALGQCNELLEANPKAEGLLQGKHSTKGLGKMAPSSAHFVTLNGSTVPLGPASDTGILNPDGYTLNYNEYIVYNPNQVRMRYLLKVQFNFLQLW
T2 sequence (P09874 whole entry): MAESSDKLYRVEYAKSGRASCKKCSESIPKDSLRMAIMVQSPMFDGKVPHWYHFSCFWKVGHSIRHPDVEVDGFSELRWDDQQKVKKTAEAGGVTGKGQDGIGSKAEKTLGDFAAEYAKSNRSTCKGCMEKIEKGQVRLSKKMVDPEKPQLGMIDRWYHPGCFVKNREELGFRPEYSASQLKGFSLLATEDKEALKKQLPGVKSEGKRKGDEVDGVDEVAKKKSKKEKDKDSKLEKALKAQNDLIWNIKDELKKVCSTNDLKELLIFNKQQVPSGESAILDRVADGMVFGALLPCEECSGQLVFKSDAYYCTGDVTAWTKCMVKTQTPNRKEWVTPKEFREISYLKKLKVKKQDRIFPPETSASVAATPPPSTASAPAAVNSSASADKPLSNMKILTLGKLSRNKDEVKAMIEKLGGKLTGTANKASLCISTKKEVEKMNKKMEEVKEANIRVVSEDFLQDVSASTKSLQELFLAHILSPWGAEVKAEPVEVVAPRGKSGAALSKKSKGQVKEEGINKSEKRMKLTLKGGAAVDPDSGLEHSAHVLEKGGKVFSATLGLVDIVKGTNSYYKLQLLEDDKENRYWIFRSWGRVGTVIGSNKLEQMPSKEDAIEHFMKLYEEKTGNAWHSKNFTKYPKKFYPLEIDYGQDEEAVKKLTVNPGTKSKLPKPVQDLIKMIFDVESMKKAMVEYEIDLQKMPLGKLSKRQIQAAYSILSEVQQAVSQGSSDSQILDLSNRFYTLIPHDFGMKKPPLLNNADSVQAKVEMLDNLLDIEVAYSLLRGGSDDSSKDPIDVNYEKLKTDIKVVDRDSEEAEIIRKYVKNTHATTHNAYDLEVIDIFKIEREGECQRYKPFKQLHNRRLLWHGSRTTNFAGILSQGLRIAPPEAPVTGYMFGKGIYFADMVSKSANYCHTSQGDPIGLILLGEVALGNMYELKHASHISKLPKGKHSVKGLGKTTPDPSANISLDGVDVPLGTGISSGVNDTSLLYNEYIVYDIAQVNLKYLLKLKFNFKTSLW

## CNC(=O)c1ccc(N2CCC(N3CCC(c4nc5onc(C(F)(F)F)c5c(=O)[nH]4)C3)CC2)cn1 (racemic) [Compound 176rac]
[1]
  Kd: > 10000 nM
[2]
  Selectivity: + (+ indicates a value of 10 to less than 50)
  Kd: 100 to 1000 nM

## CNC(=O)c1ccc(N2CCC(N3CCC(c4cc5ccc(C(F)(F)F)cc5c(=O)[nH]4)C3)CC2)cn1 (racemic) [Compound 177rac]
[1]
  Kd: > 10000 nM
[2]
  Selectivity: +++ (+++ indicate a value of at least 100)
  Kd: < 10 nM

## O=c1[nH]c(C2CCCN(C3CCC(F)(F)CC3)C2)nc2ccccc12 (single isomer, unassigned) [Compound 3a]
[3]
  IC50: 100 to 1000 nM

## O=c1[nH]c(C2CCCN(C3CCC(F)(F)CC3)C2)nc2ccccc12 (single isomer, unassigned) [Compound 3b]
[3]
  IC50: 100 to 1000 nM

## O=c1[nH]c(C2CCN(C3CCC(F)(F)CC3)C2)nc2ccccc12 (single isomer, unassigned) [Compound 4b]
[3]
  IC50: 100 to 1000 nM

## CNC(=O)c1ccc(OCCCN2CCCC(c3nc4ccccc4c(=O)[nH]3)C2)cn1 (single isomer, unassigned) [Compound 7b]
[3]
  IC50: 100 to 1000 nM

## O=c1[nH]c(C2CCN(C3CCN(c4ccc(-c5ncc[nH]5)cc4)CC3)C2)nc2ccccc12 (single isomer, unassigned) [Compound 76a]
[1]
  Kd: 100 to 1000 nM
[2]
  Selectivity: − (− indicates a value of less than 10)
  Kd: 10 to 100 nM

## O=c1[nH]c(C2CCN(C3CCN(c4ccc(-c5ncc[nH]5)cc4)CC3)C2)nc2ccccc12 (single isomer, unassigned) [Compound 76b]
[1]
  Kd: < 10 nM
[2]
  Selectivity: − (− indicates a value of less than 10)
  Kd: 10 to 100 nM

## CNC(=O)c1ccc(N2CCC(N3CCC(c4nc5cccnc5c(=O)[nH]4)C3)CC2)cn1 (single isomer, unassigned) [Compound 77a]
[1]
  Kd: > 10000 nM
[2]
  Selectivity: + (+ indicates a value of 10 to less than 50)
  Kd: 100 to 1000 nM

## CNC(=O)c1ccc(N2CCC(N3CCC(c4nc5cccnc5c(=O)[nH]4)C3)CC2)cn1 (single isomer, unassigned) [Compound 77b]
[1]
  Kd: > 10000 nM
[2]
  Selectivity: +++ (+++ indicate a value of at least 100)
  Kd: 10 to 100 nM

## CNC(=O)c1ccc(N2CCC(N3CCCC(c4nc5ccc(F)cc5c(=O)[nH]4)C3)CC2)cn1 (single isomer, unassigned) [Compound 78a]
[1]
  Kd: 1000 to 10000 nM
[2]
  Selectivity: +++ (+++ indicate a value of at least 100)
  Kd: < 10 nM

## CNC(=O)c1ccc(N2CCC(N3CCCC(c4nc5ccc(F)cc5c(=O)[nH]4)C3)CC2)cn1 (single isomer, unassigned) [Compound 78b]
[1]
  Kd: 100 to 1000 nM
[2]
  Selectivity: + (+ indicates a value of 10 to less than 50)
  Kd: 10 to 100 nM

## N#Cc1ccc(N2CCC(N3CCCC(c4nc5ccccc5c(=O)[nH]4)C3)CC2)cc1 (single isomer, unassigned) [Compound 79a]
[1]
  Kd: 100 to 1000 nM
[2]
  Selectivity: + (+ indicates a value of 10 to less than 50)
  Kd: 10 to 100 nM

## N#Cc1ccc(N2CCC(N3CCCC(c4nc5ccccc5c(=O)[nH]4)C3)CC2)cc1 (single isomer, unassigned) [Compound 79b]
[1]
  Kd: 100 to 1000 nM
[2]
  Selectivity: + (+ indicates a value of 10 to less than 50)
  Kd: 10 to 100 nM

## CNC(=O)c1ccc(N2CCC(N3CCC(c4nc5ccccc5c(=O)[nH]4)C3)CC2)cc1 (single isomer, unassigned) [Compound 80a]
[1]
  Kd: 100 to 1000 nM
[2]
  Selectivity: +++ (+++ indicate a value of at least 100)
  Kd: < 10 nM

## CNC(=O)c1ccc(N2CCC(N3CCC(c4nc5ccccc5c(=O)[nH]4)C3)CC2)cc1 (single isomer, unassigned) [Compound 80b]
[1]
  Kd: 100 to 1000 nM
[2]
  Selectivity: − (− indicates a value of less than 10)
  Kd: 100 to 1000 nM

## CNC(=O)c1ccc(N2CCC(N3CCC(c4nc5ccncc5c(=O)[nH]4)C3)CC2)cn1 (single isomer, unassigned) [Compound 81a]
[1]
  Kd: > 10000 nM
[2]
  Selectivity: + (+ indicates a value of 10 to less than 50)
  Kd: 100 to 1000 nM

## CNC(=O)c1ccc(N2CCC(N3CCC(c4nc5ccncc5c(=O)[nH]4)C3)CC2)cn1 (single isomer, unassigned) [Compound 81b]
[1]
  Kd: > 10000 nM
[2]
  Selectivity: +++ (+++ indicate a value of at least 100)
  Kd: 10 to 100 nM

## CNC(=O)c1ccc(N2CCC(N3CCCC(c4nc5ccccc5c(=O)[nH]4)C3)CC2)cc1 (single isomer, unassigned) [Compound 82a]
[1]
  Kd: 100 to 1000 nM
[2]
  Selectivity: − (− indicates a value of less than 10)
  Kd: 10 to 100 nM
